ChEMBL document CHEMBL3886265, “Imidazole amines as modulators of kinase activity” (2015)

Tests used:
[1] = target: Ribosomal protein S6 kinase beta-1 (Homo sapiens, UniProt P23443, T412E); test: P70S6K Enzyme Assay: P70S6K inhibitor compounds are diluted and plated in 96 well plates. A reaction mixture including the following components is then added to the compound plate to initiate the enzyme reaction; P70S6K (3 nM, T412E mutant, Millipore) is mixed with 24 uM ATP in an assay buffer containing 100 mM Hepes (pH 7.5), 5 mM MgCl2, 1 mM DTT, 0.015% Brij and 1 uM of the substrate peptide FITC-AHA-[…]-OH (derived from the S6 ribosomal protein sequence, FITC=fluorescein isothiocyanate, AHA=6-aminohexanoic acid). The reaction is incubated for 90 min at 25° C., before the addition of 10 mM EDTA to stop the reaction. The proportion of substrate and product (phosphorylated) peptide is analysed on a Caliper Life Sciences Lab Chip 3000, using a pressure of -1.4 psi, and upstream and downstream voltages of -3000 and -700 respectively. Product peaks are resolved before substrate peaks on the resulting chromatograms.
[2] = target: RAC-alpha serine/threonine-protein kinase (Homo sapiens, UniProt P31749); test: AKT Enzyme Assay: A TTP Mosquito liquid handling instrument is used to place 125 nl of the appropriate concentration of inhibitor in 100% DMSO (for a dose response curve calculation) into each well of a 384-well plate. To this reaction components are added to a final volume of 12.5 µl: 0.1 ng/µl His-AKT (Full Length), (Invitrogen, Part # P2999, Lot #641228C). 160 uM ATP (Fluka, 02055) 1 mM DTT (Sigma, D0632) 1 mM MgCl2 (Sigma, M1028) 1 µM substrate peptide (sequence FITC-AHA-[…]-NH2), synthesized by Tufts Peptide Synthesis service. 100 mM HEPES pH 7.5 (Calbiochem, 391338)0.015% Brij-35 (Sigma, B4184)The reaction is incubated for 90 min at 25 C, and then stopped by the addition of 70 µl of Stop buffer (100 mM HEPES pH 7.5, 0.015% Brij-35, 10 mM EDTA (Sigma, E7889)).The plate is read on a Caliper LC 3000 in an Off-Chip mobility shift assay format, using the following parameters for a 12-sipper chip: screening pressure -2.3 psi, upstream voltage -500, and downstream voltage -3000.
Chain of RAC-alpha serine/threonine-protein kinase (P31749 whole entry): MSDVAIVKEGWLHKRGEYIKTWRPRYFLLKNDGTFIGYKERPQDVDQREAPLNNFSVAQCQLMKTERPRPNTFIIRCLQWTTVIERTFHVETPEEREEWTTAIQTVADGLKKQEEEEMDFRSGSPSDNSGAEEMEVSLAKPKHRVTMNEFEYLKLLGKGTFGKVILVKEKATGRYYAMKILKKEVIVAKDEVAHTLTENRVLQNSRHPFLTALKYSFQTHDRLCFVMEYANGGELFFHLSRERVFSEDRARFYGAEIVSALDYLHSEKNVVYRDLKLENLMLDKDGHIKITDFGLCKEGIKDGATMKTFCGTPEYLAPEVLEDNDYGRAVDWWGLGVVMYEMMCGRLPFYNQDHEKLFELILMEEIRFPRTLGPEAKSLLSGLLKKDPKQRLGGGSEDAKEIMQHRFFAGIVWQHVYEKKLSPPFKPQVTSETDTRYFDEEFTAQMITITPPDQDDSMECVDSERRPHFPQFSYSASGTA

Chain of Ribosomal protein S6 kinase beta-1 (P23443 whole entry T412E): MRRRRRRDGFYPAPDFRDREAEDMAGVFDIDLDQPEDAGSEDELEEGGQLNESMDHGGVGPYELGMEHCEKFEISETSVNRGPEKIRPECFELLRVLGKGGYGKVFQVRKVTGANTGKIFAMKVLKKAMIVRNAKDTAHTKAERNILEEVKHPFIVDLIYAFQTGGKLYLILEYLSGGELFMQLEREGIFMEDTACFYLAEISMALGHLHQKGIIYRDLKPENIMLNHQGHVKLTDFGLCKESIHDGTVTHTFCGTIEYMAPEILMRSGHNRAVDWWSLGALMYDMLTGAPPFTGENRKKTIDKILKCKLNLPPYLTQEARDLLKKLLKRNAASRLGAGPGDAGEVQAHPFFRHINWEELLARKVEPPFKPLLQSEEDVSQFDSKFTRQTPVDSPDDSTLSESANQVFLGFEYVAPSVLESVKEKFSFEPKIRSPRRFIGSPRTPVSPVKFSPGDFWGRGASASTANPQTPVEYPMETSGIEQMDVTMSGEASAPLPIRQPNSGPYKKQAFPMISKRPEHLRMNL

IC50 [1]: 58 nM
IC50 [2]: 780 nM
Structure (SMILES): CCc1c(N)ncnc1N1CCC(c2nc(-c3cccc(Cl)n3)cn2CCN2CCC2)CC1
